Results from PubChem BioAssay AID1996.
Values after ≈ are worked out from the molar mass of the structure shown.

Conditions: buffer; pH 7.4; 200.0 µM

SMILES | solubility kinetic
Cc1nc([N+](=O)[O-])cn1CC(O)c1ccccc1 (stereo not given) | > 37.1 µg/mL
CCOCCCNCc1cc(Cl)ccc1OCC.Cl | > 46.2 µg/mL
CN(C(=O)c1ccc(COc2ccccc2Cl)o1)c1ccccc1 | 8.8 µg/mL (≈ 25.7 µM)
COc1ccc(NC(=S)NCCCN2CCCC2)cc1 | > 44 µg/mL
CNC(=S)N1CCC(c2nc3ccccc3s2)CC1 | > 43.7 µg/mL
CCOc1cc(C(=O)N2CCCN(C)CC2)cc(OCC)c1OCC | > 52.6 µg/mL
Cc1cccn2c(=O)c(/C=C(\C#N)C(N)=O)c(N3CCCCCC3)nc12 | 5.1 µg/mL (≈ 14.5 µM)
Cc1ccc(N(CC(=O)Nc2cc(C)ccc2C)S(C)(=O)=O)cc1 | 33.7 µg/mL (≈ 97.3 µM)
COCCCNC(=O)C(=O)NC1CCCCC1C (stereo not given) | > 38.5 µg/mL
Clc1ccc(SCCCN2CCCCC2)cc1.O=C(O)C(=O)O | > 54 µg/mL
CN(CC(=O)Nc1cccnc1Cl)S(=O)(=O)c1ccc(Cl)cc1 | 24.9 µg/mL (≈ 66.5 µM)
O=C(Nc1ccncc1)Nc1ccncc1 | > 32.1 µg/mL
O=[N+]([O-])c1cccc(CN2CCCCCC2)c1 | 31.7 µg/mL (≈ 135 µM)
Cn1c(O)c(C(=Nc2ccc(F)cc2)c2ccccc2)c(=O)n(C)c1=O | 7.4 µg/mL (≈ 20.9 µM)
CCCCOc1ccc(C(=O)OCC(=O)N2CCOCC2)cc1 | 29.9 µg/mL (≈ 93 µM)
CC(C)c1cc(=O)[nH]c(N2CCN(Cc3ccc4c(c3)OCO4)CC2)n1 | 49.9 µg/mL (≈ 140 µM)
Cc1ccc[n+](CC(=O)Nc2ccc([N+](=O)[O-])cc2)c1.[Cl-] | > 46.2 µg/mL
COc1cccc(NC(=S)N(CCC(C)C)C(C)c2ccncc2)c1 (stereo not given) | 44.4 µg/mL (≈ 124 µM)
Nc1nc(Nc2ccccc2)nc(NCCO)c1[N+](=O)[O-] | 38 µg/mL (≈ 131 µM)
O=C1NC(=S)S/C1=C\c1ccc2ccccc2c1 | 1.1 µg/mL (≈ 4.05 µM)
COC(=O)c1cc2cc(Cl)ccc2nc1SC | < 0.6 µg/mL
COc1ccc(C2=CSC3=NCCN23)cc1[N+](=O)[O-] | 40.2 µg/mL (≈ 145 µM)
O=C(COC(=O)c1ccc2c(c1)OCCO2)Nc1ccc(F)cc1 | 2.6 µg/mL (≈ 7.85 µM)

SMILES | solubility kinetic
O=[N+]([O-])c1ccc(Cl)cc1N1CCCC1 | 2.5 µg/mL (≈ 11 µM)
COc1ccc(S(=O)(=O)N2CCOCC2)cc1NC(=O)CSc1ncccn1 | 13.8 µg/mL (≈ 32.5 µM)
CCOc1ccc(N2C(=O)C3C4C=CC([C@H]5CC45)[C@@H]3C2=O)cc1 (stereo not given in full) | 8.5 µg/mL (≈ 27.5 µM)
N#CC1=C(S)N(c2ccc(F)cc2)C2(CCCCC2)NC1=O | > 47.6 µg/mL
Cc1ccc(Cl)c(OCCN2CCc3ccccc3C2)c1.Cl | 4.4 µg/mL
Cc1cc(=O)[nH]c(SCC(=O)c2ccc(F)c(C)c2)n1 | > 43.8 µg/mL
O=C(Nc1cccc(C(F)(F)F)c1)c1c(O)c2ccccc2[nH]c1=O | < 0.4 µg/mL
O=C(CN1C(=O)NC2(CCc3ccccc32)C1=O)NCc1cccc(C(F)(F)F)c1 (stereo not given) | 55.2 µg/mL (≈ 132 µM)
CCC(Oc1cccc(Cl)c1)C(=O)N1CCCN(C)CC1 (stereo not given) | > 46.6 µg/mL
COc1ccc(C(=O)Nc2cccc3c2CCCC3)c(OC)c1 | < 0.7 µg/mL
COc1ccc(C(CNc2ncnc3sccc23)N(C)C)cc1OC (stereo not given) | 35.5 µg/mL (≈ 99 µM)
CCCN1C(=O)C(O)(C2COC(C)(C)CC2=O)c2ccccc21 (stereo not given) | 33.7 µg/mL (≈ 106 µM)
O=C1N=C(N2CCOCC2)S/C1=C\c1cccnc1 | > 41.3 µg/mL
CC(=O)c1ccc(NC(=O)C2CC2c2ccccc2)cc1 (stereo not given) | 9.4 µg/mL (≈ 33.7 µM)
Cc1ccc(S(=O)(=O)CC(=O)N2CCOCC2)cc1 | > 42.5 µg/mL
CC(=O)c1ccc(NC(=O)CN2C(=O)NC3(CCc4ccccc43)C2=O)cc1 (stereo not given) | > 56.6 µg/mL
CCCc1cc(=O)[nH]c(SCC(=O)N2CCCCCC2)n1 | > 46.4 µg/mL
Cc1nc2oc3c(=O)[nH]cnc3c2c2c1COC(C)(C)C2 | 40 µg/mL (≈ 140 µM)
Nc1ccccc1C(=O)NC12CC3CC(CC(C3)C1)C2 | 28.7 µg/mL (≈ 106 µM)
Cc1ccc(CNC(=O)Cn2cccc2)cc1 | > 34.2 µg/mL
O=C(CNCCO)Nc1ccc(F)c(Cl)c1 | > 37 µg/mL
C=C[C@]1(C)C[C@@H](OC(=O)CSCCN(CC)CC)[C@]2(C)C(C)CC[C@]3(CCC(=O)[C@H]32)[C@@H](C)[C@@H]1O (stereo not given in full) | 64.9 µg/mL (≈ 131 µM)
Cl.O=C(OCCN1CCOCC1)c1cccc(F)c1 | > 43.5 µg/mL

SMILES | solubility kinetic
O=C1COc2ccc(NC(=O)c3ccccc3C(=O)O)cc2N1 | 40.5 µg/mL (≈ 130 µM)
COC(=O)c1cc(C(=O)OCC(=O)Nc2ccc(N3CCOCC3)cc2)cc([N+](=O)[O-])c1 | 11.8 µg/mL (≈ 26.6 µM)
O=C(CN1CCCc2ccccc21)Nc1ccccc1[N+](=O)[O-] | 0.5 µg/mL (≈ 1.61 µM)
Clc1ccc(COC(Cn2ccnc2)c2ccc(Cl)cc2Cl)c(Cl)c1.O=[N+]([O-])O (stereo not given) | 26.3 µg/mL
CC(=O)c1ccc(NC(=S)NCCCn2ccnc2)cc1 | > 45.4 µg/mL
O=c1nc(-c2ccccc2)nc(-c2ccccc2)[nH]1 | 22.9 µg/mL (≈ 91.9 µM)
COc1ccnc2c1c(=O)n(Cc1cccc(F)c1)c(=O)n2C | 37.9 µg/mL (≈ 120 µM)
Cc1cccc(NC(=O)CCN2CCC(C(N)=O)CC2)c1 | 41.1 µg/mL (≈ 142 µM)
NC(=O)C1CCN(CC(=O)NC(=O)NC2CCCC2)CC1 | > 44.5 µg/mL
CCOc1ccc(Nc2nc(NCc3ccco3)nc(N)c2[N+](=O)[O-])cc1 | < 0.1 µg/mL
COc1cc(OC)cc(/C(N)=N/O)c1 | 26.9 µg/mL (≈ 137 µM)
CC(C)n1c(=S)[nH]c2cc(C(F)(F)F)ccc21 | 9.1 µg/mL (≈ 35 µM)
CC(OC(=O)c1cccc(O)c1)C(=O)N(C)Cc1ccccc1 (stereo not given) | > 47 µg/mL
CC(C(=O)Nc1ccc(OCc2ccccc2)cc1)N1CCCC1 (stereo not given) | > 48.7 µg/mL
COc1cccc(NC(=O)CN(C)CC(=O)Nc2ccc3c(c2)OCO3)c1 | > 55.7 µg/mL
CC1(C)CC(=O)C2=C(C1)Nc1ccccc1NC2c1ccccc1F (stereo not given) | 10.5 µg/mL (≈ 31.2 µM)
N#Cc1cccc(NC(=O)CCN2C(=O)C3CCCCC3C2=O)c1 (stereo not given) | > 48.8 µg/mL
Cc1ccc(C(=O)NCC(=O)NC23CC4CC(CC(C4)C2)C3)cc1 | 4.2 µg/mL (≈ 12.9 µM)
Cn1c(=O)c2ccccc2n(Cc2cccc(F)c2)c1=O | 3.6 µg/mL (≈ 12.7 µM)
O=C(/C=C/c1ccc(F)cc1)c1ccc(N2CCOCC2)cc1 | 2.3 µg/mL (≈ 7.39 µM)
Cc1ccc(S(=O)(=O)N(C)c2ccc(OCC(=O)OCc3ccc(C#N)cc3)cc2)cc1 | 8.4 µg/mL (≈ 18.6 µM)
CCOc1ccccc1NC(=O)C(NC(=O)C1CCC(C)CC1)C(C)C (stereo not given) | 4.9 µg/mL (≈ 13.6 µM)
CCC(=O)NC(=S)Nc1ccc(NC(=O)c2cccnc2)cc1 | 13.1 µg/mL (≈ 39.9 µM)

SMILES | solubility kinetic
CC(=O)c1ccc(N2CCN(C(=O)c3ccc(S(=O)(=O)NCc4ccco4)cc3)CC2)cc1 | 4.9 µg/mL (≈ 10.5 µM)
CCN(CC(=O)Nc1ccc(C(=O)OC)cc1)C1CCCCC1 | 43.3 µg/mL (≈ 136 µM)
CCOc1cccc(CN2CCC(CCC(=O)NC3CC3)CC2)c1O | 44.4 µg/mL (≈ 128 µM)
COC(=O)c1cn(C(=O)c2ccc(F)cc2)c2ccccc12 | < 0.6 µg/mL
COc1ccccc1N1CCN(C(=O)c2cc3cc(C)ccc3[nH]2)CC1 | < 0.2 µg/mL
O=C(NCc1ccc2c(c1)OCO2)c1cc([N+](=O)[O-])ccc1N1CCOCC1 | > 57.8 µg/mL
COc1cc(C)c(S(=O)(=O)NOCc2ccc([N+](=O)[O-])cc2)c(C)c1C | < 0.4 µg/mL
Cc1ccc(NC(=O)C2CCN(c3nc(C)cc(C)n3)CC2)cc1 | 2.4 µg/mL (≈ 7.4 µM)
Cc1c(C)c(C)c(CN2CCSCC2)c(C)c1C | < 0.6 µg/mL
Cc1oc(S(=O)(=O)N2CCOCC2)cc1C(=O)Nc1ccc(F)cc1 | 5.4 µg/mL (≈ 14.7 µM)
CCCc1cc(C(=O)OC)c(NC(=O)CCCC(=O)O)s1 | > 47 µg/mL
C/C=C/c1ccc(OCC(O)CN2CCCCCCC2)c(OC)c1 (stereo not given) | 35.2 µg/mL (≈ 106 µM)
Cc1ccc2nc(-c3ccc(NC(=O)COCC(=O)O)cc3)sc2c1 | > 53.5 µg/mL
NC(=O)C1CCN(C(=O)/C(=C/c2ccco2)NC(=O)c2ccccc2)CC1 | > 55.1 µg/mL
Cc1ccc(NC(=O)Nc2cccnc2)cc1 | > 34.1 µg/mL
O=C(CNC(=O)c1ccc(Br)o1)NCc1ccc(F)cc1 | > 53.3 µg/mL
O=[N+]([O-])c1cccc2c(Cl)ccnc12 | > 31.3 µg/mL
COc1ccc(CNc2nc(NC(C)=O)nn2-c2ccccc2)cc1 | > 50.6 µg/mL
CCC(C)[C@H](NC(=O)NCc1cccnc1)C(=O)OC (stereo not given in full) | 41.5 µg/mL (≈ 149 µM)
CC1CCC(NCCNC(=O)c2ccco2)CC1 (stereo not given) | 26.7 µg/mL (≈ 107 µM)
O=C(CSc1ncccn1)Nc1cccc(S(=O)(=O)N2CCOCC2)c1 | > 59.2 µg/mL
Cc1ccc(C(=O)Nc2ccc3ccccc3n2)cc1 | 2.3 µg/mL (≈ 8.77 µM)
COc1ccc(-c2c(NCCc3ccccc3)c(=O)c2=O)cc1 | 1 µg/mL (≈ 3.25 µM)

SMILES | solubility kinetic
Clc1cccc(CN2CCN(c3ncccn3)CC2)c1Cl | 11.1 µg/mL (≈ 34.3 µM)
CCCN(CC1CC1)C(=S)Nc1ccc(C(C)=O)cc1 | > 43.6 µg/mL
CN(CC(=O)NCc1ccc(F)cc1)Cc1cccc(Cl)c1 | 38.7 µg/mL (≈ 121 µM)
Cc1nc(C)c(C(=O)C2=C(O)C(=O)N(CCN(C)C)C2c2ccco2)s1 (stereo not given) | > 56.3 µg/mL
CCC(=NC)C1=C(O)CC(c2ccccc2)CC1=O (stereo not given) | > 38.6 µg/mL
CCOc1ccccc1CN1C(=O)C2(OCCO2)c2ccccc21 | 5.2 µg/mL (≈ 16 µM)
O=C(NC1CCCCCC1)C(=O)NC1CC1 | 19.8 µg/mL (≈ 88.3 µM)
CC(C)(C)c1ccc(Oc2ccc(NC(=O)c3cccs3)cn2)cc1 | 1.3 µg/mL (≈ 3.69 µM)
COc1cc(NS(=O)(=O)c2ccc(NC(=O)/C=C/C(=O)O)cc2)nc(OC)n1 | > 61.3 µg/mL
Cc1c(C)n(CCc2ccccc2)c2ncnc(NCCCN(C)C)c12 | > 52.7 µg/mL
O=C(O)c1cccc([N+](=O)[O-])c1C(=O)Nc1ccc2ccccc2c1 | 35.4 µg/mL (≈ 105 µM)
CC(=O)c1c(-c2ccc(Cl)cc2)c2ccccc2[nH]c1=O | 0.9 µg/mL (≈ 3.02 µM)
Cc1cc(F)ccc1S(=O)(=O)N(CC(=O)N1CCOCC1)CC(=O)N1CCOCC1 | > 66.5 µg/mL
COc1cc2c(cc1OC)C(C(=O)NC(C)C)C1CCCCN1C2=O (stereo not given) | > 52 µg/mL
COc1ccc(Cl)cc1N1C(=O)CC(N2CCN(S(=O)(=O)c3ccccc3F)CC2)C1=O (stereo not given) | 38.3 µg/mL (≈ 79.5 µM)
COc1ccccc1C(=O)N/C(=N/c1nc(C)cc(C)n1)Nc1ccccc1 | 1.1 µg/mL (≈ 2.93 µM)
O=C1Cc2cc(S(=O)(=O)NCc3ccc(F)cc3)ccc2N1 | 16.7 µg/mL (≈ 52.1 µM)
CC(C)(C)C(=O)Nc1cc2c3c(c1)CCC(=O)N3CCC2 | 40 µg/mL (≈ 140 µM)
NC(=O)C1Cc2ccccc2CN1S(=O)(=O)c1ccc(Cl)s1 (stereo not given) | > 53.5 µg/mL
Cc1ccc(S(=O)(=O)NCCSc2ncccn2)cc1 | > 46.4 µg/mL
CC1CCCCC1NC(=O)CN1C(=O)COc2ccccc21 (stereo not given) | 8.2 µg/mL (≈ 27.1 µM)
CSc1cccc(NS(=O)(=O)c2cn(C)cn2)c1 | 14.2 µg/mL (≈ 50.1 µM)
O=S(=O)(c1ccc2[nH]ccc2c1)N1CCCCCC1 | > 41.8 µg/mL
